Data from patent publication US6107274A, “Piperazines as inhibitors of fructose-1,6-bisphosphatase (FBPase)” (Ontogen Corporation, priority 1999, dated 2000).
Read-outs that look alike come from different tables or passages of the source.

Molecular target: T1, fructose-1,6-bisphosphatase (FBPase) (Homo sapiens, UniProt P09467)
T1 sequence (P09467 1-338): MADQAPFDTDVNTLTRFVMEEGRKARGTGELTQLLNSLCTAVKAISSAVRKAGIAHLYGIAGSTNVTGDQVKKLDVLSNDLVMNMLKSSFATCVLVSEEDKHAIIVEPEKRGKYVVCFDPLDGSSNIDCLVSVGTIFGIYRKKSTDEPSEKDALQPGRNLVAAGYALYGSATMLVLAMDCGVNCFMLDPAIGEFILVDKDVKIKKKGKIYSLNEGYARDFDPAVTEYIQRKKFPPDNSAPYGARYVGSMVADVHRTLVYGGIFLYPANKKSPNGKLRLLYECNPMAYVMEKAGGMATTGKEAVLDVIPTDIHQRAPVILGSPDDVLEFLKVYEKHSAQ
Assay: FBPase inhibition assay (Taketa and Pogell): conversion of fructose-1,6-bisphosphate to fructose-6-phosphate, NADPH formation at 340 nm via coupled reactions
Format: biochemical
Protocol: The above compounds are assayed utilizing the procedure described by Taketa and Pogell (J. Biol. Chem. 240:651 (1965)), wherein the conversion of fructose-1,6-bisphosphate to fructose-6-phosphate is measured by monitoring the conversion of NADP to NADPH through two coupled reactions mediated by phosphoglucose isomerase and glucose-6-phosphate dehydrogenase. The increase in NADPH concentration during the course of the reactions was determined by measuring the increase in absorption at 340 nm. The controls used in the assay were adenosine monophosphate CAMP, 1(50 1.4±0.5 μM) and fructose 2.6-bisphosphate (1(50 2.9±0.9 μM). The results obtained of the above compounds are as follows (Table 2):
In Table 2, IC50 represents the concentration of inhibitor, which would result in 50% inhibition of FBPase activity. The Roman numbers designate the compounds' numbers as depicted in Formula A for which inhibition of FBPase activity has been measured.

[1] = concentration of inhibitor giving 50% inhibition of FBPase activity, read-out: IC50
[2] = controls used in the assay, read-out: 1(50 [IC50] of the assay controls

IC50 [1] [µM]	IC50 [2] [µM]	Compound
0.37		N#Cc1ccc(C(C(=O)NCCc2ccc(O)cc2)N2C(=O)C3Cc4ccc(O)cc4CN3C(=O)[C@@H]2CC2CCCCC2)cc1 (some centres unmarked) [Compound I, 2-(4-Cyano-phenyl)-2-(3-cyclohexylmethyl-8-hydroxy-1,4-dioxo-1,3,4,6,11,11a-hexahydro-pyrazino[1,2-b]isoquinolin-2-yl)-N-[2-(4-hydroxy-phenyl)-ethyl]-acetamide]
2.1		N#Cc1ccc(C(C(=O)NCCc2ccc(O)cc2)N2C(=O)[C@@H]3Cc4ccccc4CN3C(=O)[C@@H]2CC2CCCCC2)cc1 (some centres unmarked) [Compound II, 2-(4-Cyano-phenyl)-2-(3-cyclohexylmethyl-1,4-dioxo-1,3,4,6,11,11a-hexahydro-pyrazino[1,2-b]isoquinolin-2-yl)-N-[2-(4-hydroxy-phenyl)-ethyl]-acetamide]
8		N#Cc1ccc(C(C(=O)NCCc2cccc(O)c2)N2C(=O)[C@@H]3Cc4ccccc4CN3C(=O)[C@@H]2CC2CCCCC2)cc1 (some centres unmarked) [Compound III, 2-(4-Cyano-phenyl)-2-(3-cyclohexylmethyl-1,4-dioxo-1,3,4,6,11,11a-hexahydro-pyrazino[1,2-b]isoquinolin-2-yl)-N-[2-(3-hydroxy-phenyl)-ethyl]-acetamide]
15		N#Cc1ccc(C(C(=O)NCCc2ccc(O)cc2)N2C(=O)[C@@H]3Cc4ccccc4CN3C(=O)[C@@H]2Cc2ccccc2)cc1 (some centres unmarked) [Compound IV, 2-(3-Benzyl-1,4-dioxo-1,3,4,6,11,11a-hexahydro-pyrazino[1,2-b]isoquinolin-2-yl)-2-(4-cyano-phenyl)-N-[2-(4-hydroxy-phenyl)-ethyl]-acetamide]
34		CCCC(C(=O)NCCc1ccc(O)cc1)N1C(=O)[C@@H]2Cc3ccccc3CN2C(=O)[C@@H]1Cc1ccccc1 (some centres unmarked) [Compound IX, 2-(3-Benzyl-1,4-dioxo-1,3,4,6,11,11a-hexahydro-pyrazino[1,2-b]isoquinolin-2-yl)-pentanoic acid [2-(4-hydroxy-phenyl)-ethyl]-amide]
21		CC(C)C[C@H]1C(=O)N2Cc3ccccc3C[C@H]2C(=O)N1C(C(=O)NCCc1ccc(O)cc1)c1ccc([N+](=O)[O-])cc1 (some centres unmarked) [Compound V, N-[2-(4-Hydroxy-phenyl)-ethyl]-2-(3-isobutyl-1,4-dioxo-1,3,4,6,11,11a-hexahydro-pyrazino[1,2-b]isoquinolin-2-yl)-2-(4-nitro-phenyl)-acetamide]
24		O=C(NCCc1ccc(O)cc1)C(c1ccc([N+](=O)[O-])cc1)N1C(=O)[C@H](Cc2ccccc2)NC(=O)[C@@H]1CC1CCCCC1 (some centres unmarked) [Compound VI, 2-(3-Benzyl-6-cyclohexylmethyl-2,5-dioxo-piperazin-1-yl)-N-[2-(4-hydroxy-phenyl)-ethyl]-2-(4-nitro-phenyl)-acetamide]
30		CC(C)C[C@H]1C(=O)N2Cc3ccccc3C[C@H]2C(=O)N1C(C(=O)NCCc1ccc(O)cc1)c1ccc(C#N)cc1 (some centres unmarked) [Compound VII, 2-(4-Cyano-phenyl)-N-[2-(4-hydroxy-phenyl)-ethyl]-2-(3-isobutyl-1,4-dioxo-1,3,4,6,11,11a-hexahydro-pyrazino[1,2-b]isoquinolin-2-yl)-acetamide]
32		NC(=O)c1ccc(C(C(=O)NCCc2ccc(F)cc2)N2C(=O)[C@@H]3Cc4ccccc4CN3C(=O)[C@@H]2CC2CCCCC2)cc1 (some centres unmarked) [Compound VIII, 4-{(3-Cyclohexylmethyl-1,4-dioxo-1,3,4,6,11,11a-hexahydro-pyrazino[1,2-b]isoquinolin-2-yl)-[2-(4-fluoro-phenyl)-ethylcarbamoyl]-methyl}-benzamide]
40		CCCCCC(C(=O)NCCc1ccc(O)cc1)N1C(=O)[C@@H]2Cc3ccccc3CN2C(=O)[C@@H]1Cc1ccc(O)cc1 (some centres unmarked) [Compound X, 2-[3-(4-Hydroxy-benzyl)-1,4-dioxo-1,3,4,6,11,11a-hexahydro-pyrazino[1,2-b]isoquinolin-2-yl]-heptanoic acid [2-(4-hydroxy-phenyl)-ethyl]-amide]
45		CCCC(C(=O)NCCc1ccc(O)cc1)N1C(=O)[C@@H]2Cc3ccccc3CN2C(=O)[C@@H]1Cc1ccc(O)cc1 (some centres unmarked) [Compound XI, 2-[3-(4-Hydroxy-benzyl)-1,4-dioxo-1,3,4,6,11,11a-hexahydro-pyrazino[1,2-b]isoquinolin-2-yl]-pentanoic acid [2-(4-hydroxy-phenyl)-ethyl]-amide]
54		CC(C)CC(C(=O)NCCc1ccc(O)cc1)N1C(=O)[C@@H]2Cc3ccccc3CN2C(=O)[C@@H]1Cc1ccc(O)cc1 (some centres unmarked) [Compound XII, 2-[3-(4-Hydroxy-benzyl)-1,4-dioxo-1,3,4,6,11,11a-hexahydro-pyrazino[1,2-b]isoquinolin-2-yl]-4-methyl-pentanoic acid [2-(4-hydroxy-phenyl)-ethyl]-amide]
57		N#Cc1ccc(C(C(=O)NCc2ccc(C(=O)N3CCOCC3)cc2)N2C(=O)[C@@H]3Cc4ccccc4CN3C(=O)[C@@H]2CC2CCCCC2)cc1 (some centres unmarked) [Compound XIII, 2-(4-Cyano-phenyl)-2-(3-cyclohexylmethyl-1,4-dioxo-1,3,4,6,11,11a-hexahydro-pyrazino[1,2-b]isoquinolin-2-yl)-N-[4-(morpholine-4-carbonyl)-benzyl]-acetamide]
24		O=C(O)c1ccc(CNC(=O)C(c2ccc(Oc3ccccc3)cc2)N2C(=O)[C@@H]3Cc4ccccc4CN3C(=O)[C@@H]2CC2CCCCC2)cc1 (some centres unmarked) [Compound XIV, 4-{[2-(3-Cyclohexylmethyl-1,4-dioxo-1,3,4,6,11,11a-hexahydro-pyrazino [1,2-b]isoquinolin-2-yl)-2-(4-phenoxy-phenyl)-acetylamino]-methyl}-benzoicacid]
27		O=C(O)c1ccc(CNC(=O)C(c2ccc3c(c2)-c2ccccc2C3)N2C(=O)C3Cc4ccccc4CN3C(=O)C2Cc2ccccc2)cc1 (centres unmarked) [Compound XV, 4-{[2-(3-Benzyl-1,4-dioxo-1,3,4,6,11,11a-hexahydro-pyrazino[1,2-b]isoquinolin-2-yl)-2-(9H-fluoren-3-yl)-acetylamino]-methyl}-benzoic acid]
34		O=C(O)CCCCCNC(=O)C(c1ccc(Oc2ccccc2)cc1)N1C(=O)[C@H](Cc2ccccc2)NC(=O)[C@@H]1CC1CCCCC1 (some centres unmarked) [Compound XVI, 6-[2-(3-Benzyl-6-cyclohexylmethyl-2,5-dioxo-piperazin-1-yl)-2-(4-phenoxy-phenyl)-acetylamino]-hexanoic acid]
37		Cc1ccc(C(C(=O)NCCc2ccc(O)cc2)N2C(=O)[C@@H]3Cc4ccccc4CN3C(=O)[C@@H]2C)cc1 (some centres unmarked) [Compound XVII, N-[2-(4-Hydroxy-phenyl)-ethyl]-2-(3-methyl-1,4-dioxo-1,3,4,6,11,11a-hexahydro-pyrazino[1,2-b]isoquinolin-2-yl)-2-p-tolyl-acetamide]
95		O=C(O)CCCCCNC(=O)C(c1ccc(Oc2ccccc2)cc1)N1C(=O)C(Cc2ccc([N+](=O)[O-])cc2)NC(=O)C1Cc1ccccc1 (centres unmarked) [Compound XVIII, 6-[2-[2-Benzyl-5-(4-nitro-benzyl)-3,6-dioxo-piperazin-1-yl]-2-(4-phenoxy-phenyl)-acetylamino]-hexanoic acid]
	1.4 ± 0.5	Nc1ncnc2c1ncn2[C@@H]1O[C@H](COP(=O)(O)O)[C@@H](O)[C@H]1O [adenosine monophosphate, reference compound]
	2.9 ± 0.9	O=P(O)(O)OC[C@H]1O[C@@](CO)(OP(=O)(O)O)[C@@H](O)[C@@H]1O [fructose 2.6-bisphosphate, reference compound]
